Laboratory results taken from paper PMC10951960, “CGP7930 - An allosteric modulator of GABABRs, GABAARs and inwardly-rectifying potassium channels” (Neuropharmacology, 2023).
Where two headings read alike, the source gives them in different places.

Assays:
α1β2γ2L GABAAR = target: T1, α1β2γ2L GABAAR (Mus musculus, UniProt P22723+P62812+P63137); assay: whole-cell currents of recombinant GABAA receptors in HEK-293 cells (α1β2γ2L); format: cell-based, murine
T1 construct: expressed in transfected cells; host or cells: HEK-293T
T1 sequence (P62812 28-455): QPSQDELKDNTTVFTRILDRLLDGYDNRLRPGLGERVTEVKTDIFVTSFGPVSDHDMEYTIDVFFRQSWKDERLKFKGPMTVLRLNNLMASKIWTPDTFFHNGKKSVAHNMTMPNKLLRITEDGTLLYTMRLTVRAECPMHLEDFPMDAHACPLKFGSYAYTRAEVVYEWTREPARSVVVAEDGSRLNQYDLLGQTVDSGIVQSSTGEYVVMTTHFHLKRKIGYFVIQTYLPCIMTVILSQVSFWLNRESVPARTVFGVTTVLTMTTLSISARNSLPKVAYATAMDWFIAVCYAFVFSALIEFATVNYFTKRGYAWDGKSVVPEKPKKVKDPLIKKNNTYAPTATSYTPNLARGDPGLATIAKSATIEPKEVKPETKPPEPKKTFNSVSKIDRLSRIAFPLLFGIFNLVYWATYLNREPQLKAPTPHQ
T1 sequence (P63137 25-512 limits assumed): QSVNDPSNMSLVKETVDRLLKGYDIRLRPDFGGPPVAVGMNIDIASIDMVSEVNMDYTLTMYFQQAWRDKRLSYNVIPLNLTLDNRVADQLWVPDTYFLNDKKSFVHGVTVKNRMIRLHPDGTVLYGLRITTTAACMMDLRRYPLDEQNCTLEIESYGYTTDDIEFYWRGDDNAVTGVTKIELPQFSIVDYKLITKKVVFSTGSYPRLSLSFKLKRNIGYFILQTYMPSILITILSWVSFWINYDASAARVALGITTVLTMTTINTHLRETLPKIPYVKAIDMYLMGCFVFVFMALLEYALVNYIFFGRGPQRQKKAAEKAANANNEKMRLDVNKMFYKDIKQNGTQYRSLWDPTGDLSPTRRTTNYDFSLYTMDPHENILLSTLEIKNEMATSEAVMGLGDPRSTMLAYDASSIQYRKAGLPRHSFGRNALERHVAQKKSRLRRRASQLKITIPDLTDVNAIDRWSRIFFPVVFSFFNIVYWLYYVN
T1 sequence (P22723 39-474): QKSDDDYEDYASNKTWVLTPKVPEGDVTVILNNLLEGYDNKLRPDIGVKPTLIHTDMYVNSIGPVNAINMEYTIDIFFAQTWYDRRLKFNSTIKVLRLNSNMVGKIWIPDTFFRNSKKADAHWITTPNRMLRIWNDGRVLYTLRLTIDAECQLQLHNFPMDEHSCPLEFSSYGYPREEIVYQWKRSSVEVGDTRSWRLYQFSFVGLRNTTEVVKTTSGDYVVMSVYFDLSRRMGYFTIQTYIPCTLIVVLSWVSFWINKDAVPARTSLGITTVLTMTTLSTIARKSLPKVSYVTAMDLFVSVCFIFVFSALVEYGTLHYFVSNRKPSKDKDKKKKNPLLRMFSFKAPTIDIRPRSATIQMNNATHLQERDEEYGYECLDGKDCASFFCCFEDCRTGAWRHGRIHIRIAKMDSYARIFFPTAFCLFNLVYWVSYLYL
Protocol: CGP55845, and other drugs, were obtained from Merck (Sigma-Aldrich) unless otherwise stated.
All cell culture reagents were acquired from ThermoFisher unless otherwise stated. […] These cells are referred to as GIRK cells throughout the text and were transiently transfected with cDNAs for eGFP, GABAB R1a and R2 in a 1:1:5 ratio applied 1–2 h after cell plating.
(§1) Spontaneous inhibitory postsynaptic currents (sIPSCs) were recorded from cultured hippocampal neurons at 12–17 days in vitro (DIV). […] For recording K^+ currents in GIRK cells and neurons, the bath solution was switched to a high K^+ solution containing 25 mM KCl and reduced NaCl (120 mM), to shift the equilibrium potential for K^+ from approximately −90 to −47 mV, thus reversing the direction of K^+ current flux to net inward. GABABR-activated K^+ currents in cultured neurons were recorded in the additional presence of 2 mM kynurenic acid and 20 μM picrotoxin.
(§2) Borosilicate glass electrodes (3–5 MΩ) were filled with a K^+-based internal solution for recording GIRK currents containing (mM): 120 KCl, 2 MgCl2, 11 EGTA, 30 KOH, 10 HEPES, 1 CaCl2, 1 GTP, 2 ATP, 14 creatine phosphate, pH 7.0. GABAAR currents and sIPSCs were recorded with a Cs-based internal solution containing (mM): 120 CsCl, 1 MgCl2, 11 EGTA, 30 KOH, 10 HEPES, 1 CaCl2, and 2 K2ATP; pH 7.2. […] Cells were held at −60 mV (sIPSCs) or −60/−70 mV (K^+ currents). Voltage clamp recordings were undertaken after optimising series resistance (Rs, <10 MΩ) and compensating for the whole-cell membrane capacitance. Membrane currents were filtered at 5 kHz (−3 dB, 6th pole Bessel, 36 dB/octave) and stored for analysis with Clampex 10.
Concentration-response curves were generated by measuring the current (I) for each ligand concentration and normalising to the maximal current response (Imax).
We explored the ability of CGP7930 to modulate different recombinant GABAARs expressed in HEK-293 cells to avoid confounds arising from heterogeneous receptor subtypes in neurons.

[1] = tested on: GABAAR-mediated tonic inhibition in hippocampal neurons; assay: tonic inhibition: baseline holding current and RMS noise in cultured hippocampal neurons; format: cell-based, rat
Protocol: Briefly, single cells derived from dissected hippocampi were seeded onto glass coverslips coated with poly-D-lysine in a plating medium containing minimum essential media with 5% v/v heat-inactivated FCS, 5% v/v heat-inactivated horse serum, penicillin-G/streptomycin (100 U/100 μg/ml), 2 mM L-glutamine, and 20 mM glucose. Two hr after plating the media was changed to a Neurobasal-A based maintenance media supplemented with 1% v/v B-27, penicillin-G/streptomycin (100 U/100 μg/ml), 0.5% v/v Glutamax and 35 mM glucose.
as §1, §2
For tonic inhibition, to determine the average holding currents, a 30 s continuous holding current recording was sampled every 1 s, discarding epochs that coincided with sIPSCs. Any effect of CGP7930 or bicuculline on the holding current was defined by subtracting the average holding currents in control and during drug application. The baseline root-mean-square current variance (RMS) was calculated before and during drug treatment. This was estimated from a continuous (20 s) current recording, sampled every 100 ms. The median current was calculated every 5 s and values more than twice the standard deviation from the median (usually due to IPSCs) were eliminated. All drugs were applied using a U-tube rapid drug application system, or more slowly via bath perfusion.
We assessed the effect of CGP7930 on tonic inhibition in hippocampal cultured neurons.

IC50 (α1β2γ2L GABAAR): 6.6 ± 2.3 µM
EC50 (α1β2γ2L GABAAR; EC50 of GABA EC20 modulation curve, α1β2γ2L, ∼EC20 GABA, direct effects subtracted, n = 5): 1.7 ± 1.3 µM
EC50 (α1β2γ2L GABAAR; α1β2γ2L (αβγ), read-out: EC50 for direct activation by CGP7930 alone): 9.3 ± 0.7 µM
threshold for direct activation (α1β2γ2L GABAAR; α1β2γ2L, CGP7930 alone): 1 to 3 µM
concentration at which clear direct activation became evident (α1β2γ2L GABAAR; α1β2γ2L, pre-application): 3 to 10 µM
threshold for potentiation of the GABA current (α1β2γ2L GABAAR; α1β2γ2L, pre-application): 1 µM
SMILES: CC(C)(CO)Cc1cc(C(C)(C)C)c(O)c(C(C)(C)C)c1 [CGP7930, 3-(3′,5′-Di-tert-butyl-4′-hydroxy) phenyl-2,2-dimethylpropanol]
Membrane current RMS noise ([1]; 100 nM): 6.4 ± 0.4 (9) pA
Membrane current RMS noise ([1]; 500 nM): 8.6 ± 0.9 (9) pA
Tonic currents (change in baseline holding current) ([1]; 500 nM to 1 μM): −441.6 ± 124.7 (9) pA
Membrane current RMS noise ([1]; 1 μM): 12.7 ± 1.7 (9) pA
Membrane current RMS noise ([1]; 1 μM + Bic (50 μM bicuculline)): 5.7 ± 0.5 (9) pA
Tonic currents (change in baseline holding current) ([1]; 1 μM CGP7930 to 50 μM bicuculline (Bic)): 372.0 ± 88.5 (9) pA
Tonic currents (change in baseline holding current) ([1]; 100–500 nM): −115.6 ± 37.8 (9) pA
Tonic currents (change in baseline holding current) ([1]; Control to 100 nM): −21.41 ± 5.4 (9) pA
